Results as given in EP0366451A2, “The use of oxidized polyamines, especially NN'-Bis-(3-propionaldehyde)-1-4-diaminobutane (sperminedialdehyde) as immunosuppressive agents” (ORTHO PHARMACEUTICAL CORPORATION, priority 1988, dated 1990).

Key:
Murine bone marrow cells = experiment: Con A driven mouse bone marrow cell proliferation ([3H]-thymidine incorporation); type: cell-based
Procedure: Mouse spleen and bone marrow cells were incubated separately with different concentrations of spermine dialdehyde in vitro for 1 hour. Cells were washed extensively and set up in a Con A stimulated proliferation assay. A graph is depicted wherein percentage response is plotted as a function of various concentrations of spermine dialdehyde.
Mice were sacrificed by cervical dislocation and disinfected by dipping in a Dettol solution. Bone marrow cells were obtained from suitable long bones by flushing with a […] needle. Cells were then washed three times with RPMI before use.
Mouse spleen cells were cultured for 3 days in flat bottom microtiter relates at 10⁵ cells per well in the presence of […] of Con A. 3H-thymidine (0.1 microcurie/well) was added for the last 4-6 hours of the culture period. Cells were harvested as described above.
Mouse bone marrow and spleen cells were each incubated for 1 hour with different concentrations of spermine dialdehyde. Cells were then washed 3 times with RPMI and set up in a Con A driven proliferation assay. Results are depicted in Figure 2.
For [³H]-thymidine incorporation, drug or vehicle treated bone marrow or spleen cells were plated in RPMI-1640, containing 10% fetal bovine serum, 10 µM β-mercaptoethanol, 25 mM HEPES and 2 mM glutamine. Con-A (4 µg/ml and […]) was used as mitogens for bone marrow and spleen cells. […]

Human B lymphocytes = experiment: Pokeweed mitogen driven human B cell proliferation after 1 hour incubation; type: cell-based; details: compared with T cells; Figure 1
Procedure: (§1) Human T & B lymphocytes were incubated separately with different concentrations of spermine dialdehyde in vitro for 1 hour. Cells were washed extensively and set up in a PHA (for T cell) or PWM (B cell) proliferation assay. A graph is depicted wherein percentage of response is plotted as a function of concentration of spermine dialdehyde.
(§2) Peripheral blood lymphocytes (PBL) were obtained from the blood of normal donors by using standard Ficoll-Hypaque gradient techniques. The T and non-T cells were separated by standard sheep red blood cell (SRBC) rosetting technique. Briefly, 5 x 10⁶/ml PBL were incubated with 1% neuraminidase-treated SRBC, and rosetted cells were separated from non-rosetted cells in a Ficoll-Hypaque gradient. The rosetted cells were designated as T cells. Purified B lymphocytes were obtained from non-rosetted cells by removal of residual T cells using the Pan T monoclonal antibody OKT 11 and complement.
(§3) T cell proliferation: 7 x 10⁴ - 10⁵ human T lymphocytes were cultured in flat bottom microtiter plates (Flow) in the presence of 0.1% PHA-P or 1/64 PWM for 4 days. 3H-thymidine (0.1 MCi/well) was added for the last 6 hours of the culture period. […] Cell associated radioactivity was determined by scintillation counting in an automated counter. All of the results were expressed as % response calculated according to the formula: [formula] […]

[1] = system: BFU-E and CFU-GM colonies; experiment: Hemopoietic colony formation assay; type: cell-based, murine
Procedure: Hemopoietic colony forming cells were cultured as described in the art by Iscove & Sieber with minor modifications. SDA/DEAB treated or vehicle treated cells were added to murine hemopoietic culture mixture with erythropoietin and conditioned medium (Terry Fox Laboratories, Vancouver, Canada). The mixture was vortexed and 1-2 ml portions (1 x 10⁵ bone marrow cells) were plated in duplicate in 35 mm plastic petri dishes (lux suspension dishes, Flow Laboratories). The culture dishes were incubated in a humidified atmosphere (95% air : 5% CO₂) at 37°C. Colonies were counted on day 8 or 10 for BFU-E, CFU-GM and CFU-mix. Colony types were confirmed with Wright/Giemsa Stain.

Human T lymphocytes = experiment: PHA driven human T cell proliferation after 1 hour incubation; type: cell-based; details: 0.62 x 10⁻² mM, 1 hour at 37°C, washed; Figure 1
Procedure: as §1, §2, §3

L1210/0 cells = experiment: L1210/0 cell proliferation ([3H]-thymidine incorporation); type: cell-based, Murine
Procedure: Murine lymphocytic leukemia cell lines, L1210/CPA and L1210/0 (als. known as Le/CPA and Le/0) were kindly provided by Dr. F. Struck, Southern Research Institute, Birmingham, AL. Cells were grown in RPMI-1640, supplemented with 10% horse serum, 100 units/ml penicillin and 100 µg/ml streptomycin. The cultures were incubated at 37°C in a humidified atmosphere with 5% CO₂ in air. Bone marrow cells were flushed from femurs of mice with RPMI-1640, using a tuberculin syringe fitted with a 25 gauge meedle. For spleen cells, spleens were removed and passed through a fine wire mesh to get a single homogenous cell suspension. In either case, cells were centrifuged, washed twice and resuspended in the drug exposure medium (see below). Cell viability was determined by trypan blue exclusion and the cell suspension was diluted to the desired concentration.
Murine leukemic cells and bone marrow/spleen cells were treated with SDA (1 x 10^-6 M to 5 x 10⁻⁵ M) in RPMI-1640 or PBS based solution. Wherever mentioned, cells were pretreated with DEAB (10-30 µM) for 30-60 min at 37°C and then exposed to SDA.
For [³H]-thymidine incorporation, drug or vehicle treated bone marrow or spleen cells were plated in RPMI-1640, containing 10% fetal bovine serum, 10 µM β-mercaptoethanol, 25 mM HEPES and 2 mM glutamine. Con-A (4 µg/ml and […]) was used as mitogens for bone marrow and spleen cells. Three days later, [³H]-thymidine (0.2 µCi/well) was added and cells were harvested after 12-18 hrs. L1210/CPA and L1210/0 cells (0.1 - 1 x 10⁵ cells/well were plated in RPMI-1640 containing 10% horse serum. [³H]-thymidine was added after 24 hrs and cells were filtered on GF/B filter paper for scintillation counting.

O=CCCNCCCCNCCC=O [SDA, NN′-Bis-(3-propionaldehyde)-1-4-diaminobutane]
[³H]-thymidine incorporation after DEAB pretreatment (Murine bone marrow cells; DEAB (30 µM) pretreatment): higher susceptibility at lower concentrations of SDA
[³H]-thymidine incorporation (Murine bone marrow cells; treated in PBS based medium, cultured 3 days): dose dependent decrease
suppression of B lymphocyte proliferation (Human B lymphocytes): a much greater quantity was required
suppression of BFU-E and CFU-GM colonies ([1]; 50 µM): almost total suppression
sensitivity of myeloid colony forming cells after DEAB pretreatment ([1]; SDA 10-25 µM, DEAB pretreatment): further potentiated the sensitivity
inhibited T cell proliferation (Human T lymphocytes): 85%
effect of DEAB pretreatment on cytotoxicity of SDA (L1210/0 cells; DEAB (20 µM) pretreatment): little or no effect
IC50 (L1210/0 cells; Mus musculus, L1210/0, [³H]-thymidine incorporation, read-out: mean IC₅₀): 4.66 µM
sensitivity of L1210/0 cells relative to L1210/CPA cells (L1210/0 cells; proliferation assays): 2 fold
